We go through one compound from PMC3726599, “A Metabolically-Stabilized Phosphonate Analog of Lysophosphatidic Acid Attenuates Collagen-Induced Arthritis” (PLoS ONE, 2013).

For experiment [1], the system named is LPA production in whole blood. Kind of experiment: LPA and LPC levels in whole blood ex vivo (HPLC-MS/MS). Further details: species or system mouse. The method, then: BrP-LPA, LPA species (C14:0, C16:0, C18:0, C18:1 and C20:4) and LPC species (C14:0, C16:0, C18:0, C18:1 and C20:0) were measured in plasma with HPLC-ESI/MS/MS using RSLCnano system (Ultimate 3000) coupled in-line with an LTQ Orbitrap XL mass spectrometer (Thermo Scientific, Waltham, MA, USA). BrP-LPA and lipid (LPA, LPC) extraction from plasma was performed on ice according to the Folch method with minor modifications. Plasma samples (50 ul) were mixed with 950 ul PBS prior to extraction and spiked with the internal standard mix (17:1 LPA/LPC). Samples were extracted under neutral conditions with 4 ml of ice-cold CHCl3/CH3OH (2/1, v/v) followed by 2 ml of PBS-saturated ice-cold CHCl3/CH3OH (2/1, v/v). Each extraction step was followed by a 60 s vortex and a 1 min centrifugation step in a bench-top clinical centrifuge in a cold room at 4°C at 3,000 rpm. The lower chloroform organic phases from both neutral extraction steps were pooled and kept for LPC measurement. The remained aqueous phase was chilled on ice for 10 min and extracted twice with ice-cold acidified with acetic acid CHCl3/CH3OH (2/1, v/v) as above. The lower organic phases were pooled, neutralized to pH 6–7 (checked with pH paper as above) on ice and kept for LPA, BrP-LPA measurements. The kept neutral lower organic phase of neutral extraction and the neutralized acidified lower organic phase were evaporated to dryness. The resulting residues were resuspended in 0.15 ml of isopropanol and after brief vortex mixing the solution was transferred to the auto sampler vial. Recovery of LPA species was between 60% and 95%. Recovery of BrP-LPA was 70% and the recovery of LPC species was between 80% and 100%. The Relative Standard Deviation (RSD) was less than 7% from the plasma fortified with three different concentrations (0.1, 0.5 and 1 μΜ) of LPAs, (0.1, 1 and 10 μΜ) of BrP-LPA and (0.5, 5 and 50 μΜ) of LPCs. Analysis was performed using a Phenomenex (Phenomenex, Torrance, CA, USA) Luna Silica column (2–250 mm, 5 μm particle size) using a binary gradient program consisting of isopropanol:hexane:100 mM NH4CO2H(aq) 58:40:2 (mobile phase A) and isopropanol:hexane:100 mM NH4CO2H(aq) 50:40:10 (mobile phase B). The mobile phase was delivered at a flow rate of 0.3 ml/min and the total run time was 50 min/sample. The analysis was performed with electrospray ionization in negative SIM (Single Ion Monitoring) mode for LPA species and BrP-LPA and in positive mode for LPC species (data dependent MS/MS). The resolution was 100 K providing high accuracy for lysophospholipid measurements. Data were collected and processed with the Xcalibur software (Thermo Scientific). The precursor ion mass was used for the quantification while lipid identity was confirmed by precursor ion fragmentation using collision induced dissociation (CID). The peak area ratios (lipid/internal standard) versus the molar ratios (lipid/internal standard) were plotted and fitted to a linear regression. The linear dynamic range of LPA species and BrP-LPA was between 0.01 μM and 10 μΜ.
The inhibition model (competitive, noncompetitive, or mixed type inhibition) was evaluated by graphical analysis with Lineweaver–Burk double reciprocal plots (1/[velocity] versus 1/[substrate]) and Cornish-Bowden plot ([substrate]/[velocity] versus [Inhibitor]). These plots were generated by the measurement of ATX activity in the presence of different BrP-LPA concentrations (0–10 μΜ) and increased amounts of 16:0 LPC (100, 200, 400 μΜ). The inhibition constants (Ki) and IC50 values were determined using the mean values obtained from two independent experiments. The relative remaining ATX activity or LPA levels in the presence of the BrP-LPA was expressed as a percentage of the corresponding control value (ATX activity, LPA levels without inhibitor). […]

In another experiment the test system is ATX. To be noted: at 10 μM, substrate FS-3; cited from earlier work.
In another experiment the test system is LPA4. To be noted: Ca++ mobilization, CHO cells; kind of constant not given; read-out: inhibition of LPA4; cited from earlier work.

Where two headings read alike, the source gives them in different places.

Take `CCCCCCCCCCCCCCCC(=O)OC[C@@H](O)CC(Br)P(=O)(O)O` (stereo partly drawn) [BrP-LPA, 1-bromo-3(S)-hydroxy-4-(palmitoyloxy)butyl-phosphonate]: the “reduction of 18:0 LPA levels” value in experiment [1] (BrP-LPA 10 μM) came to 97%. In addition, the “reduction of total LPA levels” value in experiment [1] (BrP-LPA 10 μM) was determined as 86%. The IC50 is 1340 nM in experiment [1] (read-out: IC50, production of 16:0 LPA); 300 nM in experiment [1] (read-out: IC50, production of 18:0 LPA); 1520 nM in experiment [1] (read-out: IC50, production of 18:1 LPA); 559 nM in experiment [1] (read-out: IC50, production of 20:4 LPA); 270 nM in the experiment on LPA4. In addition, the “endogenous LPC levels” value in experiment [1] (upon addition of BrP-LPA) was “no significant changes”. Moreover, the “inhibition of lysophospholipase D activity of ATX” value with ATX is 94%.
